Where “and” joins values, the source holds several entries; their conditions need not be identical. Equal entries are not always repeated.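 Step 1: Grow cells in 96-well plates. Step 2: Expose to compound for 48 hours at 5 concentrations. Step 3: Interpolate endpoints linearly; if unreached, use highest concentration. Here, GI50 denotes the concentration required for 50% inhibition of growth. The concentration for full growth arrest is given as TGI.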 Where a SMILES comes first, the peptide text is derived from it. [ ]: non-standard residue; d: D form. The star is where a group is joined. Phe(4-NO2) = N[CH](Cc1ccc([N+](=O)[O-])cc1)C(=O)O; Boc = CC(C)(C)OC(=O)*
Columns and labels:
Assay in all cases: inhibition of tumour cell growth, NCI panel, 48 h
[1] = system: T-47D breast
[2] = system: A498 renal
[3] = system: HCT-116 colon
[4] = system: SF-268 CNS
[5] = system: CCRF-CEM leukemia
[6] = system: SK-MEL-28 melanoma
[7] = system: SN12C renal
[8] = system: RXF 393 renal
[9] = system: HOP-62 NSCLC
[10] = system: SK-MEL-5 melanoma
[11] = system: DU-145 prostate
[12] = system: NCI/ADR-RES ovarian

Structure (SMILES)	TGI [1]	TGI [2]	TGI [3]	TGI [4]	TGI [5]	TGI [6]	TGI [7]	TGI [8]	TGI [9]	TGI [10]	TGI [11]	TGI [12]	GI50 [2]	GI50 [12]
CC1=C(C(=O)Nc2ccccc2)C2(CCCCC2)C(C#N)=C(SCC(=O)Nc2ccc(Br)cc2)N1	92.5 µM	19.6 µM	8.28 µM	8.74 µM	7.02 µM	> 26.5 µM	16.6 µM	14.1 µM	32.6 µM	8.39 µM	> 100 µM	27.3 µM	–	–
COC(=O)C1OC(O[C@H]2CC[C@]3(C)[C@H]4CC=C5[C@@H]6CC(C)(C)CC[C@]6(C(=O)OC6OCC(O)C(O)C6OC6OC(C)C(OC7OCC(O)C(O)C7O)C(O)C6O)CC[C@@]5(C)[C@]4(C)CC[C@H]3C2(C)C)C(O)C(O)C1O (some centres not stated)	> 100 µM and 54.2 µM	20 µM and 35.3 µM	33.1 µM and 37.5 µM	31.2 µM and 34.7 µM	53.5 µM and 47.2 µM	27.8 µM and 30.5 µM	27.1 µM and 31.2 µM	37 µM and 40.7 µM	33.2 µM and 32.6 µM	31.8 µM and 32.5 µM	33.7 µM and 47.8 µM	> 100 µM	7.25 µM and 20.7 µM	24 µM and > 100 µM
CC(C)NC(=O)CN1CCN(c2c(O)c3c(c(O)c2Cl)C(=O)C=CC3=O)CC1	3.67 µM	7.29 µM	2.61 µM	4.04 µM	–	3.17 µM	3.28 µM	2.92 µM	18.6 µM	3.45 µM	7.31 µM	10.7 µM	–	–
Cc1ccc(NC(=O)c2cc(S(=O)(=O)Nc3nc4ncccc4[nH]3)c(SSc3cc(Cl)c(C(=O)Nc4ccc(C)cc4)cc3S(=O)(=O)Nc3nc4ncccc4[nH]3)cc2Cl)cc1	> 100 µM	> 100 µM	> 100 µM	> 100 µM	> 100 µM	> 100 µM	> 100 µM	> 100 µM	> 100 µM	> 100 µM	> 100 µM	> 100 µM	–	–
CCOC(=O)c1ccc(N=c2sc3ccccc3nc2Nc2ccc(C(=O)OCC)cc2)cc1	> 100 µM	> 100 µM	> 100 µM	> 100 µM	> 100 µM	> 100 µM	> 100 µM	> 100 µM	> 100 µM	> 100 µM	> 100 µM	> 100 µM	–	–
CC(=O)OCc1ccc2oc(=O)c(C(=O)Oc3ccccc3)cc2c1	37.3 µM	> 100 µM	30.6 µM	> 100 µM	> 100 µM	> 100 µM	99.2 µM	> 100 µM	> 100 µM	> 100 µM	> 100 µM	> 100 µM	–	–
CNC(=O)CCC(NC(=O)OC(C)(C)C)C(=O)NC(Cc1ccc([N+](=O)[O-])cc1)C(=O)NCC(=O)NC (configuration not stated) (Boc-Glu(NHMe)-[Phe(4-NO2)]-Gly-NHMe; configuration not given here)	> 100 µM	> 100 µM	> 100 µM	> 100 µM	–	> 100 µM	> 100 µM	> 100 µM	> 100 µM	> 100 µM	> 100 µM	> 100 µM	–	–
CCCCCCCCCCCCCCCCCCN(C)CC(COP(=O)([O-])OCC[N+](C)(C)C)OC (configuration not stated)	> 100 µM	39.3 µM	43.3 µM	27.5 µM	24.3 µM	56.8 µM	> 50.6 µM	8.55 µM	28.4 µM	43.8 µM	> 100 µM	> 100 µM	–	–
O=C(NCCCCCCNC(=O)c1cc(-c2ccccc2)nc2ccccc12)c1cc(-c2ccccc2)nc2ccccc12	> 100 µM	> 100 µM	> 100 µM	> 100 µM	> 100 µM	> 100 µM	> 100 µM	> 100 µM	> 100 µM	> 100 µM	> 100 µM	> 100 µM	–	–
C=C(Br)CNC(=O)CCC(=O)NCC(=C)Br	> 100 µM	> 100 µM	> 100 µM	> 100 µM	> 100 µM	> 100 µM	> 100 µM	> 100 µM	> 100 µM	> 100 µM	> 100 µM	> 100 µM	–	–
C=C(C)[C@@H]1CCC2=C[C@H](OC2=O)[C@@]2(C)C[C@@H]2C2=CC(C)=C(O2)[C@H]1O	> 75 µM	> 75 µM	> 75 µM	> 75 µM	> 75 µM	> 75 µM	> 75 µM	> 75 µM	> 75 µM	–	> 75 µM	> 75 µM	–	–
N[C@H]1CCCC[C@@H]1N1C(=O)c2ccccc2C1(O)c1ccc(Cl)cc1 (some centres not stated)	14.7 µM	28.1 µM	21.9 µM	27.5 µM	16.7 µM	10.4 µM	27 µM	20.4 µM	29.6 µM	22.5 µM	25.9 µM	30.8 µM	–	–
O=[N+]([O-])c1cc(-c2nc(-c3ccccc3)c(-c3ccccc3)[nH]2)c(O)c([N+](=O)[O-])c1	68.3 µM	40.5 µM	33.4 µM	> 100 µM	72.7 µM	> 100 µM	77.4 µM	44.8 µM	43.4 µM	36 µM	55.4 µM	56.7 µM	–	–
OCCNCNc1nc(NCNCCO)nc(N(CNCCO)CNCCO)n1	61.1 µM	62 µM	41.5 µM	60.8 µM	> 69.7 µM	52.6 µM	60.8 µM	31.1 µM	43.2 µM	28.5 µM	44.3 µM	54 µM	–	–
O=[N+]([O-])c1ccc(N/N=C/c2ccc(OCCCCCCCCCCCO)cc2)c([N+](=O)[O-])c1	> 100 µM	> 100 µM	> 43.7 µM	7.62 µM	> 44.5 µM	32.5 µM	14.3 µM	4.6 µM	19.6 µM	4.66 µM	> 95.9 µM	9.51 µM	–	–
C[C@@H]1CC[C@@H]2[C@@H](C1)O[C@@H]([C@H](C)OCc1ccccc1)SC2(C)C	32.9 µM	39.3 µM	29.3 µM	> 100 µM	–	88.1 µM	42.4 µM	33.4 µM	> 100 µM	33 µM	> 100 µM	75.5 µM	–	–
COc1ccc(C(=O)/C=C/c2cc(O)c(O)c(F)c2F)c(OC)c1	> 100 µM	55.5 µM	27.2 µM	> 100 µM	32.9 µM	> 100 µM	32.2 µM	59.6 µM	92.7 µM	25.3 µM	> 100 µM	67.7 µM	–	–
